Laboratory results: US12428370B2, “Haloallylamine dual amine oxidase inhibitors” (Syntara Limited, priority 2020, dated 2025)
Where a name gives a salt, the structure may show the parent alone.

Assays:
[1] = system: Hooded Wistar rat model of dopaminergic neurodegeneration; assay: Intranigral LPS-induced neuroinflammatory model, dopaminergic neuron counts; format: in vivo, Hooded Wistar male rats; settings: unilateral LPS, 2 mg/kg i.p. daily for 2 weeks, t-test p<0.05, FIG. 5
Protocol: Hooded Wistar male rats weighing between 300-400 g were obtained from Adelaide Laboratory Animal Services.
Unilateral infusions: Rats receiving a unilateral injection of 2 μL of 1.5 mg/mL solution of LPS (O55:B5, Sigma) in the substantia nigra were anaesthetized with isofluorane and positioned in a stereotaxic frame. For all rats, holes were drilled into the skull above the appropriate targeted structures according to the following coordinates: −5.3 mm posterior; ±2.0 mm lateral; −8.0 mm ventral to bregma.
Immunohistochemical procedures: two weeks after the lesion, the rats were transcardially perfused with PBS followed by PFA 4%. Brains were post-fixed in PFA 4%, and coronal sections of 30 μm containing the substantia nigra were collected and washed 3×0.01 M phosphate-buffered saline at pH 7.4. (PBS) for 10 minutes. Dopaminergic neurons were stained with anti-tyrosine hydroxylase (TH) antibody 1:10000 and visualized using nickel-enhanced 3,3′-diaminobenzidine (DAB) and counted manually.

[2] = molecular target: T1, Muscle and Heart Tissue MAO-B (Mus musculus, UniProt Q8BW75); assay: Mouse muscle and heart tissue MAO-B activity after oral administration; format: in vivo; settings: for MAO-B activity in heart and muscle tissue: C57BL/6J mice, single oral dose, FIG. 8
T1 construct: Skeletal muscle was pulverized in liquid nitrogen and then suspended in ice-cold HEPES buffered media; from tissue; host or cells: skeletal muscle and heart of C57BL/6J and mdx mice (mitochondrial extract)
T1 sequence (Q8BW75 1-520): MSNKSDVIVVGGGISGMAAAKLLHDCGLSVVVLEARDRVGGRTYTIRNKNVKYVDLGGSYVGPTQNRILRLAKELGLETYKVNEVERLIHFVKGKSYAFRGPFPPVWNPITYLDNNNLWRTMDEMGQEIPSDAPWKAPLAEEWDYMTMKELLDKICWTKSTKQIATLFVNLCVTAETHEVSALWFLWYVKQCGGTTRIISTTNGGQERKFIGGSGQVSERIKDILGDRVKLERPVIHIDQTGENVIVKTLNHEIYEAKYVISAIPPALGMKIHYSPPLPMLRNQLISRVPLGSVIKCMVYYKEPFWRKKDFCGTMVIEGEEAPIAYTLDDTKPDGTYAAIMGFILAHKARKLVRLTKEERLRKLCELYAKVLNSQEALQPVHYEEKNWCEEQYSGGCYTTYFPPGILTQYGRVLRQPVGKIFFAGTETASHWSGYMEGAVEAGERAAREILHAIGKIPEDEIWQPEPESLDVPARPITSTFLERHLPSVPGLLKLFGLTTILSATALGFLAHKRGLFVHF
Protocol: (§1) Mice were orally administered the compound under study and sacrificed at various time points and abdominal fat, muscle and heart tissue collected.
(§2) Skeletal muscle was pulverized in liquid nitrogen and then suspended in ice-cold HEPES buffered media (20 mM HEPES, 0.8% w/v free-fatty acid bovine serum albumin (BSA), 75 mM sucrose, 10 mM EDTA, 215 mM D-mannitol, pH 7.4). Homogenized and then centrifuged at 2,500 rpm for 10 minutes at 4° C. Supernatant transferred and centrifuged at 10,000 rpm for 8 minutes. Supernatant discarded and the resultant pellet containing the mitochondrial extract re-suspended in 0.1 M sodium phosphate buffer solution (1:3 ratio).
(§3) Heart muscle was washed with PBS solution three times over ice. Homogenate and extract was then prepared as described for the skeletal muscle.
MAO-B activity was determined by using a specific MAO-A inhibitor (e.g. clorgyline) and an SSAO/VAP-1 inhibitor (e.g. semicarbazide) to establish the high signal. Low signal was established as for the adipose tissue assay (EXAMPLE 13).
(§4) Activity of the treated samples was analyzed using the fluorometric method described in EXAMPLE 9 for SSAO/VAP-1 activity, EXAMPLE 10 for MAO-B and EXAMPLE 11 for MAO-A activity (FIG. 8 and FIG. 9).

[3] = molecular target: T2, Muscle and Heart Tissue MAO-A (Mus musculus, UniProt Q64133); assay: Mouse muscle and heart tissue MAO-A activity after oral administration; format: in vivo
T2 construct: Skeletal muscle was pulverized in liquid nitrogen and then suspended in ice-cold HEPES buffered media; from tissue; host or cells: skeletal muscle and heart of C57BL/6J and mdx mice (mitochondrial extract)
T2 sequence (Q64133 1-526): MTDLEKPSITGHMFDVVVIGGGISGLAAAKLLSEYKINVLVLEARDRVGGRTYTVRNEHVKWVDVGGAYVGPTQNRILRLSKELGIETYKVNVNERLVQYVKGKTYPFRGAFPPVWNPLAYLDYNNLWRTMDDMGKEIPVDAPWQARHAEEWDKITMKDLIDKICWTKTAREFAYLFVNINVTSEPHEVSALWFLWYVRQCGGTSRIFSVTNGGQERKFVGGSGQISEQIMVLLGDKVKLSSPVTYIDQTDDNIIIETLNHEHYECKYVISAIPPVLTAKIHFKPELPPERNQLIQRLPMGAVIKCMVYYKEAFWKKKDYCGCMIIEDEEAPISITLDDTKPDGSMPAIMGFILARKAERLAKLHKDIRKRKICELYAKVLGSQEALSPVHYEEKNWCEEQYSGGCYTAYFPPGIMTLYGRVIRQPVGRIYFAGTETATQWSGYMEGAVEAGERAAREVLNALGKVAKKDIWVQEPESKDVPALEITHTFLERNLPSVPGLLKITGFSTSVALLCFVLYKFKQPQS
Protocol: as §1, §2, §3
MAO-A activity was determined by using a selective MAO-B inhibitor mofegiline (at 30 nM) to establish the high signal and a mixture of specific MAO-A inhibitor (clorgyline) and mofegiline (at 30 nM) to determine the low signal.
as §4

[4] = Metabolic stability profile (liver microsomes, hepatocytes, plasma, whole blood, simulated gastric fluid, metabolite identification); format: in vitro ADME; settings: all assays: liver microsomes, plasma (human, rat, dog), simulated gastric fluid pH 1.2, metabolite identification
Protocol: Assessment of the metabolic stability profile of Compound 1 using standardized commercially available methods (available through contract research organizations such as Eurofins Panlabs Inc, (https://www.eurofinsdiscoveryservices.com/services/in-vitro-assays/) or Evotec SE, (https://www.evotec.com/en/execute/integrated-pre-clinical-development/adme)).
The potential for metabolism in vivo was evaluated in vitro using the following assays:
Liver microsomal stability (human, rat, dog; in presence of NADPH)
Hepatocyte stability (human, rat, dog)
Plasma stability (human, rat, dog)
Whole blood stability (human, rat)
Simulated gastric fluid stability (10 μM test article, pH 1.2)
Metabolite identification in human hepatocytes

| Compound | loss of dopaminergic neurons (TH-positive) in substantia nigra [1] | MAO-B activity in heart and muscle tissue ([2]; 24-hour time point) | MAO-B activity in heart and muscle tissue ([2]; various doses, 4 hours after administration) | muscle MAO-B activity ([2]; mdx mice (C57BL/10ScSn-Dmdmdx/J), oral, FIG. 10) | heart and muscle MAO-A activity ([3]; C57BL/6J mice, single oral dose, 4 and 24 hours after administration, FIG. 9) | muscle MAO-A activity ([3]; mdx mice (C57BL/10ScSn-Dmdmdx/J), oral, FIG. 11) | metabolic stability [4] |
| --- | --- | --- | --- | --- | --- | --- | --- |
| NC/C(=C\F)C1Cc2ccccc2O1 (single isomer, unassigned; (-)) [PXS-5131, (−)-(E)-2-(2,3-Dihydrobenzofuran-2-Yl)-3-Fluoroprop-2-En-1-Amine Hydrochloride] | significant protection from loss |  |  |  |  |  |  |
| N#Cc1ccc(OC/C(=C/F)CN)cc1 [Compound 1, (E)-4-((2-(aminomethyl)-3-fluoroallyl)oxy) benzonitrile] |  | inhibition of the enzyme activity is still evident | dose-related reduction | completely inhibits | no inhibitory effect | no inhibitory effect | favourable metabolic stability |
